Laboratory results reported in patent publication US10988743B2, “Coryneform bacterial transformant and method for producing 4-aminobenzoic acid or salt thereof using same” (RESEARCH INSTITUTE OF INNOVATIVE TECHNOLOGY FOR THE EARTH, priority 2016, dated 2021).
“Also recorded” adds a separate entry of the source.

Tests used:
Format in all cases: cell-based
Pseudomonas putida S12 = assay: Growth inhibition by para-aminobenzoic acid in aerobic culture (OD610)
Experimental: (§1) Experiments about growth inhibition by para-aminobenzoic acid in aerobic culture were carried out, regarding Corynebacterium glutamicum, Escherichia coli, Streptomyces lividans, Pseudomonas putida, and Saccharomyces cerevisiae. No example of Pseudomonas putida S12 used in the present experiment has been reported to be a para-aminobenzoic acid producing host, but it was used as a comparative example, since it has been reported to be a solvent resistant bacterium and could be considered to have excellent resistance to para-aminobenzoic acid.
Pseudomonas putida S12 was applied to the LB-agar plate, and was incubated at 30° C. for 15 hours in a dark place. Pseudomonas putida grown on the plate described above was inoculated in the LB-liquid medium, and aerobic shaking culture was carried out at 30° C. for 13 hours. Pseudomonas putida grown under the above-described conditions was inoculated in 100 ml of LB-liquid medium so that the initial bacterial cell concentration OD610=0.05, simultaneously, para-aminobenzoic acid was added so that the final concentrations thereof became 0, 100, 200, 300 mM, and aerobic shaking culture was carried out at 30° C. The growth of bacterial cells was determined by measuring absorbance of OD610.
(§2) How the addition of para-aminobenzoic acid to medium influenced aerobic growth was analyzed, and the results are shown in FIG. 1.

[1] = test system: Streptomyces lividans 1326; assay: as above; settings: for growth of Streptomyces lividans 1326: aerobic shaking culture 28° C.
Experimental: as §1
Streptomyces lividans 1326 was applied to LB-agar plate, and was incubated at 28° C. for 24 hours in a dark place. Streptomyces lividans grown on the plate described above was inoculated in LB-liquid medium with a coil spring, and aerobic shaking culture was carried out at 28° C. for 24 hours. Streptomyces lividans grown under the above-described conditions was inoculated in 10 ml of LB-liquid medium with a coil spring so that the initial bacterial cell concentration OD610=0.2. Simultaneously, para-aminobenzoic acid was added so that the final concentrations thereof became 0, 100, 200, 300 mM, and aerobic shaking culture was carried out at 28° C. The growth of bacterial cells was determined by measuring OD610.
as §2

Escherichia coli JM109 = assay: as above; settings: aerobic shaking culture 37° C.
Experimental: as §1
Escherichia coli JM109 was applied to LB-agar plate [containing 1% polypeptone, 0.5% yeast extract, 0.5% sodium chloride, and 1.5% agar], and was incubated at 37° C. for 15 hours in a dark place. Escherichia coli grown on the plate described above was inoculated in LB-liquid medium [containing 1% polypeptone, 0.5% yeast extract, and 0.5% sodium chloride], and was subjected to aerobic shaking culture at 37° C. for 13 hours. Escherichia coli grown under the above-described conditions was inoculated in 100 ml of LB-liquid medium so that the initial bacterial cell concentration OD610=0.05. […] The growth of bacterial cells was determined by measuring OD610.
as §2

[2] = test system: Saccharomyces cerevisiae W303; assay: as above; settings: aerobic shaking culture 30° C.
Experimental: as §1
Saccharomyces cerevisiae W303 was applied to YEPD-agar plate [containing 2% polypeptone, 1% yeast extract, 2% glucose, and 1.5% agar] and was incubated at 30° C. for 20 hours in a dark place. Saccharomyces cerevisiae grown on the plate described above was inoculated in the YEPD-liquid medium [containing 2% polypeptone, 1% yeast extract, and 2% glucose], and aerobic shaking culture was carried out at 30° C. for 13 hours. Saccharomyces cerevisiae grown under the above-described conditions was inoculated in 100 ml of YEPD-liquid medium so that the initial bacterial cell concentration OD610=0.05. […] The growth of bacterial cells was determined by measuring OD610.
as §2

[3] = test system: Corynebacterium glutamicum strain R; assay: Influence of para-aminobenzoic acid on glucose consumption rate (jar fermenter); settings: 0, 50, 100 or 200 mM para-aminobenzoic acid, 5% glucose, 33° C., pH 7.0
Experimental: Influences of para-aminobenzoic acid on the glucose consumption rate were examined by a method described below, using Corynebacterium glutamicum strain R.
After a wild strain of Corynebacterium glutamicum was inoculated in 10 ml of the A-liquid medium containing 2% glucose, aerobic shaking culture was carried out at 33° C. for 18 hours. After the same strain was inoculated in 100 ml of the A-liquid medium containing 2% glucose, aerobic shaking culture was carried out at 33° C. for 12 hours. […]
Bacterial cells of the strain grown under the above-described conditions were collected by centrifugation (4° C., 5000×g, 10 minutes), and the bacterial cells thus obtained were washed with 0.9% sodium chloride aqueous solution once. […] The glucose concentration in the reaction solution was monitored by using a glucose sensor.

[4] = test system: Corynebacterium glutamicum strain R; assay: Growth inhibition by para-aminobenzoic acid in aerobic culture (OD610); settings: aerobic shaking culture 33° C.
Experimental: as §1
Corynebacterium glutamicum strain R was applied to an A-agar plate containing glucose at 4%, and was incubated at 33° C. for 15 hours in a dark place. One platinum loop of Corynebacterium glutamicum grown on the plate described above was inoculated in a test tube having therein 10 ml of the A-liquid medium containing of glucose at 4%, and was subjected to aerobic shaking culture at 33° C. for 15 hours. Corynebacterium glutamicum grown under the above-described conditions was inoculated in 10 ml of the A-liquid medium containing glucose at 4% so that the initial bacterial cell concentration OD610=0.05. […] The growth of bacterial cells was determined by measuring OD610.
as §2

For `Nc1ccc(C(=O)O)cc1` [para-aminobenzoic acid, 4-aminobenzoic acid], which “growth of Pseudomonas putida S12” value (Pseudomonas putida S12; 100 mM para-aminobenzoic acid, aerobic shaking culture 30° C.) is on record?
Its value is “substantially completely inhibited”.

And the “growth of Pseudomonas putida” value (Pseudomonas putida S12; 300 mM para-aminobenzoic acid)?
The value was “substantially completely inhibited”.

What about the “growth of Streptomyces lividans 1326” value ([1]; 100 mM para-aminobenzoic acid) of the same molecule?
The value was “significantly inhibited”.

What about the “growth of Streptomyces lividans 1326” value ([1]; 200 mM para-aminobenzoic acid) of the same molecule?
Its value is “substantially completely inhibited”.

What about the “growth of Streptomyces lividans” value ([1]; 300 mM para-aminobenzoic acid) of the same molecule?
The value was “substantially completely inhibited”.

What about the “growth of Escherichia coli JM109” value (Escherichia coli JM109; 100 mM para-aminobenzoic acid) of the same molecule?
The value was “significantly inhibited”.

And the “growth of Escherichia coli JM109” value (Escherichia coli JM109; 300 mM para-aminobenzoic acid)?
Its value is “substantially completely inhibited”.

And the “growth of Saccharomyces cerevisiae W303” value ([2]; 200 mM para-aminobenzoic acid)?
The value was “strongly inhibited”.

What about the “growth of Saccharomyces cerevisiae W303” value ([2]; 300 mM para-aminobenzoic acid) of the same molecule?
Its value is “extremely strongly inhibited; also recorded: substantially completely inhibited”.

What about the “saccharide (glucose) consumption rate of Corynebacterium glutamicum” value [3] of the same molecule?
Its value is “no substantial decrease”.

And the “growth of Corynebacterium glutamicum strain R” value ([4]; 300 mM para-aminobenzoic acid)?
The value was “able to grow”.

What about the “growth of Corynebacterium glutamicum” value ([4]; 400 mM para-aminobenzoic acid) of the same molecule?
Its value is “able to grow”.
